Reference: patent publication US9593149B2, “Amylin and calcitonin receptor agonist” (Novo Nordisk A/S, priority 2014, dated 2017)
In brackets after ≈: the same amount, converted by molar mass. Numbered stars: 1 amine (or outer) side, 2 acyl side, 3 side chain; on linkers, the order of the positions; unused ones are H or OH. Square brackets hold non-standard residues; d marks the D form. Side chains are listed from the residue outwards. Peptide text beside a SMILES is read from it. * marks the point of attachment. C20 diacid = O=C(O)CCCCCCCCCCCCCCCCCCC(=O)*; γGlu = O=C(O)[C@H](CCC(=O)[*:2])N[*:1]; C14 diacid = O=C(O)CCCCCCCCCCCCC(=O)*

Experiments:
[1] = Assay (IV) determination of solubility; format: physicochemical
Procedure: Assay (IV)—Determination of Solubility
The mimylin peptide was dissolved in water at ˜500 nmol/ml and mixed 1:1 with a series of buffers (100 mM glycylglycine pH 3.0, 100 mM glycylglycine pH 4.0, 100 mM glycylglycine pH 5.0, 100 mM bistrispropane pH 6.0, 100 mM bistrispropane pH 6.5, 100 mM bistrispropane pH 7.0, 100 mM bistrispropane pH 7.5, 100 mM bistrispropane pH 8.0).

rat calcitonin receptor = molecular target: T1, rat calcitonin receptor (Rattus norvegicus, UniProt P32214); test: Assay (VIII) binding to the rat calcitonin receptor; conditions: membranes; read-out: rCT-R binding IC50
T1 construct: expressed in transfected cells; host or cells: BHK tk'ts 13 (transient, FuGENE 6)
T1 sequence (P32214 25-479 isoform P32214-2 limits assumed): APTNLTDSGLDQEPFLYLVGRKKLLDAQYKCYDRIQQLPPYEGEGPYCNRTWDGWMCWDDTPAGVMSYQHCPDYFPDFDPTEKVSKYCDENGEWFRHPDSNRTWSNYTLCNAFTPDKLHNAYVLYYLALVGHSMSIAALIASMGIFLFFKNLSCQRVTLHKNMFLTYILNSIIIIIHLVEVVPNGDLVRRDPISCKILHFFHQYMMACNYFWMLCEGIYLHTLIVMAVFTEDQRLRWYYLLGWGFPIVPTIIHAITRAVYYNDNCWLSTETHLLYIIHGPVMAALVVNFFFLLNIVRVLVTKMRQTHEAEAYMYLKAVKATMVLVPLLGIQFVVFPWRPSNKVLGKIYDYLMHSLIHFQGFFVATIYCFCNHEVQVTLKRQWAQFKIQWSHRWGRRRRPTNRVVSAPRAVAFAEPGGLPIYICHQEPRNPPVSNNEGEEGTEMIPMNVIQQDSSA
Procedure: The morning after, the plates were washed three times in HBSS (4° C.), and lyzed in Lysis buffer (0.1 M NaOH), 1% SDS. Scintillation cocktail (MicroScint40®) was added and the plates were shaken at 500 rpm for a short period. The plate was incubated at room temperature in the dark for 1 hour and Read on a TopCounter™ (Packard). The IC50 was calculated using (one site binding competition analysis) GraphPad Prism5 as a measure of receptor affinity. Assay (VIII)—Determination of Binding to the Rat Calcitonin Receptor
The assay was performed as described above (Assay (VII)—Determination of binding to the human calcitonin receptor) with the exception that we used membranes prepared from BHK tk'ts 13 cells that were transiently transfected with the rat calcitonin receptor. The BHK tk'ts 13 cells were transiently transfected with rat calcitonin receptor using FuGENE® 6 (Roche), according to the manufacturer's recommendations. Cells were grown in DMEM with 10% FBS and 1% Pen/Strep.

## CC(C)C[C@H](NC(=O)CNC(=O)[C@H](CO)NC(=O)[C@H](C)NC(=O)CC[C@H](NC(=O)CCCCCCCCCCCCCCCCCCC(=O)O)C(=O)O)C(=O)N[C@@H](CO)C(=O)N[C@H](C(=O)N[C@@H](C)C(=O)N[C@H](C(=O)N[C@@H](CC(C)C)C(=O)NCC(=O)N[C@@H](CCCNC(=N)N)C(=O)N[C@@H](CC(C)C)C(=O)N[C@@H](CO)C(=O)N[C@@H](CCC(N)=O)C(=O)N[C@@H](CCC(=O)O)C(=O)N[C@@H](CC(C)C)C(=O)N[C@@H](Cc1cnc[nH]1)C(=O)N[C@@H](CCC(=O)O)C(=O)N[C@@H](CC(C)C)C(=O)N[C@@H](CCC(N)=O)C(=O)N[C@H](C(=O)N[C@@H](Cc1ccc(O)cc1)C(=O)N1CCC[C@H]1C(=O)N1CCC[C@H]1C(=O)N[C@H](C(=O)N[C@@H](CCC(=O)O)C(=O)N[C@H](C(=O)NCC(=O)N[C@@H](CO)C(=O)NCC(=O)N[C@H](C(=O)N[C@@H](Cc1ccc(O)cc1)C(N)=O)[C@@H](C)O)[C@@H](C)O)[C@@H](C)O)[C@@H](C)O)[C@@H](C)O)[C@@H](C)O [compound 128, [N-terminal(C20 diacid-gGlu), des1, 4G, 9T, 15Q, 21Q, 23Y, 25P, 30S, 31G, 32T, 33Y]mimylin] ({C20 diacid-γGlu}-ASGLSTATLGRLSQELHELQTYPPTETGSGTY-NH2)
[1]; pH 3.0
  Solubility: ≧200 μM
[1]; pH 4.0
  solubility at 18 h: 25 µM (≈ 95.5 µg/mL)
[1]; pH 5.0
  Solubility: ≧200 μM
[1]; pH 6.0
  Solubility: ≧200 μM
[1]; pH 6.5
  Solubility: ≧200 μM
[1]; pH 7.0
  Solubility: ≧200 μM
[1]; pH 7.5
  Solubility: ≧200 μM
[1]; pH 8.0
  Solubility: ≧200 μM
Rat calcitonin receptor
  IC50: 28 pM

## CC(=O)N[C@@H](C)C(=O)N[C@@H](CO)C(=O)N[C@@H](CCC(=O)O)C(=O)N[C@@H](CC(C)C)C(=O)N[C@@H](CO)C(=O)N[C@H](C(=O)N[C@@H](C)C(=O)N[C@@H](C)C(=O)N[C@@H](CC(C)C)C(=O)NCC(=O)N[C@@H](CCCNC(=N)N)C(=O)N[C@@H](CC(C)C)C(=O)N[C@@H](CO)C(=O)N[C@@H](C)C(=O)N[C@@H](CCCCNC(=O)CC[C@H](NC(=O)CCCCCCCCCCCCCCCCCCC(=O)O)C(=O)O)C(=O)N[C@@H](CC(C)C)C(=O)N[C@@H](Cc1cnc[nH]1)C(=O)N[C@@H](CCC(=O)O)C(=O)N[C@@H](CC(C)C)C(=O)N[C@@H](C)C(=O)N[C@H](C(=O)N[C@@H](CC(C)C)C(=O)N1CCC[C@H]1C(=O)N[C@@H](CCCNC(=N)N)C(=O)N[C@H](C(=O)N[C@@H](CCC(=O)O)C(=O)N[C@H](C(=O)NCC(=O)N[C@@H](CO)C(=O)NCC(=O)N[C@@H](CO)C(=O)N1CCC[C@H]1C(N)=O)[C@@H](C)O)[C@@H](C)O)[C@@H](C)O)[C@@H](C)O [compound 69, [N-terminal(acetyl), des1, 16K(C20 diacid-gGlu), 30S, 31G]mimylin] (Ac-ASELSTAALGRLSAK([γGlu-C20 diacid])LHELATLPRTETGSGSP-NH2)
[1]; pH 3.0
  Solubility: ≧200 μM
[1]; pH 4.0
  Solubility: ≧200 μM
[1]; pH 5.0
  Solubility: ≧200 μM
[1]; pH 6.0
  Solubility: ≧200 μM
[1]; pH 6.5
  Solubility: ≧200 μM
[1]; pH 7.0
  Solubility: ≧200 μM
[1]; pH 7.5
  Solubility: ≧200 μM
[1]; pH 8.0
  Solubility: ≧200 μM
Rat calcitonin receptor
  IC50: 42 pM

## CC(C)C[C@H](NC(=O)[C@H](C)NC(=O)[C@H](C)NC(=O)[C@@H](NC(=O)[C@H](CO)NC(=O)[C@H](CC(C)C)NC(=O)[C@H](CCC(=O)O)NC(=O)[C@H](CO)NC(=O)[C@H](C)NC(=O)CC[C@H](NC(=O)CCCCCCCCCCCCCCCCCCC(=O)O)C(=O)O)[C@@H](C)O)C(=O)NCC(=O)N[C@@H](CCCNC(=N)N)C(=O)N[C@@H](CC(C)C)C(=O)N[C@@H](CO)C(=O)N[C@H](CCC(=O)O)C(=O)N[C@@H](CCC(=O)O)C(=O)N[C@@H](CC(C)C)C(=O)N[C@@H](Cc1cnc[nH]1)C(=O)N[C@@H](CCC(=O)O)C(=O)N[C@@H](CC(C)C)C(=O)N[C@@H](C)C(=O)N[C@H](C(=O)N[C@@H](CC(C)C)C(=O)N1CCC[C@H]1C(=O)N[C@@H](CCCNC(=N)N)C(=O)N[C@H](C(=O)N[C@@H](CCC(=O)O)C(=O)N[C@H](C(=O)NCC(=O)N[C@@H](CO)C(=O)NCC(=O)N[C@@H](CO)C(=O)N1CCC[C@H]1C(N)=O)[C@@H](C)O)[C@@H](C)O)[C@@H](C)O [compound 67, [N-terminal(C20 diacid-gGlu), des1, 15e, 30S, 31G]mimylin] ({C20 diacid-γGlu}-ASELSTAALGRLS[dE]ELHELATLPRTETGSGSP-NH2)
[1]; pH 3.0
  Solubility: ≧200 μM
[1]; pH 4.0
  Solubility: ≧200 μM
[1]; pH 5.0
  Solubility: ≧200 μM
[1]; pH 6.0
  Solubility: ≧200 μM
[1]; pH 6.5
  Solubility: ≧200 μM
[1]; pH 7.0
  Solubility: ≧200 μM
[1]; pH 7.5
  Solubility: ≧200 μM
[1]; pH 8.0
  Solubility: ≧200 μM
Rat calcitonin receptor
  IC50: 17 pM

## CC(C)C[C@H](NC(=O)CNC(=O)[C@H](CO)NC(=O)[C@H](C)NC(=O)COCCOCCNC(=O)COCCOCCNC(=O)CC[C@H](NC(=O)CCCCCCCCCCCCCCCCCCC(=O)O)C(=O)O)C(=O)N[C@@H](CO)C(=O)N[C@H](C(=O)N[C@@H](C)C(=O)N[C@H](C(=O)N[C@@H](CC(C)C)C(=O)NCC(=O)N[C@@H](CCCNC(=N)N)C(=O)N[C@@H](CC(C)C)C(=O)N[C@@H](CO)C(=O)N[C@@H](CCC(N)=O)C(=O)N[C@@H](CCC(=O)O)C(=O)N[C@@H](CC(C)C)C(=O)N[C@@H](Cc1cnc[nH]1)C(=O)N[C@@H](CCC(=O)O)C(=O)N[C@@H](CC(C)C)C(=O)N[C@@H](CCC(N)=O)C(=O)N[C@H](C(=O)N[C@@H](Cc1ccc(O)cc1)C(=O)N1CCC[C@H]1C(=O)N[C@@H](CCCNC(=N)N)C(=O)N[C@H](C(=O)N[C@@H](CCC(=O)O)C(=O)N[C@H](C(=O)NCC(=O)N[C@@H](CO)C(=O)NCC(=O)N[C@H](C(=O)N[C@@H](Cc1ccc(O)cc1)C(N)=O)[C@@H](C)O)[C@@H](C)O)[C@@H](C)O)[C@@H](C)O)C(C)C)[C@@H](C)O [compound 120, [N-terminal(C20 diacid-gGlu-2xOEG), des1, 4G, 9V, 15Q, 21Q, 23Y, 30S, 31G, 32T, 33Y]mimylin]
[1]; pH 3.0
  Solubility: ≧200 μM
[1]; pH 4.0
  Solubility: ≧200 μM
[1]; pH 5.0
  solubility at 18 h: 96 µM (≈ 400 µg/mL)
[1]; pH 6.0
  Solubility: ≧200 μM
[1]; pH 6.5
  Solubility: ≧200 μM
[1]; pH 7.0
  Solubility: ≧200 μM
[1]; pH 7.5
  Solubility: ≧200 μM
[1]; pH 8.0
  Solubility: ≧200 μM
Rat calcitonin receptor
  IC50: 27 pM

## CC(C)C[C@H](NC(=O)[C@H](C)NC(=O)[C@H](C)NC(=O)[C@@H](NC(=O)[C@H](CO)NC(=O)[C@H](CC(C)C)NC(=O)[C@H](CCC(=O)O)NC(=O)[C@H](CO)NC(=O)[C@H](C)NC(=O)CCCCCCCCCCCCC(=O)O)[C@@H](C)O)C(=O)NCC(=O)N[C@@H](CCCNC(=N)N)C(=O)N[C@@H](CC(C)C)C(=O)N[C@@H](CO)C(=O)N[C@@H](C)C(=O)N[C@@H](CCC(=O)O)C(=O)N[C@@H](CC(C)C)C(=O)N[C@@H](Cc1cnc[nH]1)C(=O)N[C@@H](CCC(=O)O)C(=O)N[C@@H](CC(C)C)C(=O)N[C@@H](C)C(=O)N[C@H](C(=O)N[C@@H](CC(C)C)C(=O)N1CCC[C@H]1C(=O)N[C@@H](CCCNC(=N)N)C(=O)N[C@H](C(=O)N[C@@H](CCC(=O)O)C(=O)N[C@H](C(=O)NCC(=O)N[C@@H](CO)C(=O)NCC(=O)N[C@@H](CO)C(=O)N1CCC[C@H]1C(N)=O)[C@@H](C)O)[C@@H](C)O)[C@@H](C)O [compound 51, [N-terminal(C14 diacid), des1, 30S, 31G]mimylin] ({C14 diacid}-ASELSTAALGRLSAELHELATLPRTETGSGSP-NH2)
[1]; pH 3.0
  Solubility: ≧200 μM
[1]; pH 4.0
  Solubility: ≧200 μM
[1]; pH 5.0
  Solubility: ≧200 μM
[1]; pH 6.0
  Solubility: ≧200 μM
[1]; pH 6.5
  Solubility: ≧200 μM
[1]; pH 7.0
  Solubility: ≧200 μM
[1]; pH 7.5
  Solubility: ≧200 μM
[1]; pH 8.0
  Solubility: ≧200 μM
Rat calcitonin receptor
  IC50: 123 pM
